Patent US7323188B2 (priority 1997, dated 2008)
Several values for one entry are separate records, joined by “and”; a condition that tells them apart may be missing. Equal entries are not always repeated. Where two headings read alike, the source gives them in different places.

Tests used:
Conditions in all cases: in vivo
[1] = tested on: downy mildew (Pseudoperonospora cubensis)
[2] = tested on: downy mildew (Pseudoperonospora cubensis); remark: listed apart in the source
[3] = tested on: late blight (Phytophthora infestans)
[4] = tested on: downy mildew (Pseudoperonospora cubensis); remark: listed apart in the source
[5] = tested on: downy mildew (Pseudoperonospora cubensis); remark: listed apart in the source
[6] = tested on: late blight (Phytophthora infestans); remark: listed apart in the source
[7] = tested on: downy mildew (Pseudoperonospora cubensis); remark: listed apart in the source

Row | SMILES | Incidence rate [1] [%] | Incidence rate [2] | Incidence rate [4] | also measured
1 | O=P([O-])([O-])O.[Na+].[Na+] [Na2HPO4, disodium hydrogenphosphate] | 100 | 100% | – | –
2 | CCNC(=O)NC(=O)C(C#N)=NOC [Cymoxanil, 1-(2-cyano-2-methoxyiminoacetyl)-3-ethylurea] | – | – | – | Incidence rate [3]: 100%
3 | O=P([O-])([O-])O.[K+].[K+] [K2HPO4, dipotassium hydrogenphosphate] | 95 | 95% | – | –
4 | COc1ccc(C(=CC(=O)N2CCOCC2)c2ccc(Cl)cc2)cc1OC [Dimethomorph, (E,Z)-4-[(3-(4-chlorophenyl)-3-(3,4-dimethoxyphenyl)acryloyl]morpholine] | – | – | 50% and 60% | Incidence rate [3]: 85% and 100%
5 | CO/C=C(/C(=O)OC)c1ccccc1Oc1cc(Oc2ccccc2C#N)ncn1 [Compound (a), methyl (E)-2-{2-[6-(2-cyanophenoxy)pyrimidin-4-yloxy]phenyl}-3-methoxyacrylate] | – | – | – | Theoretical incidence rate (Colby's formula) [4]: 100 (100) %
6 | Cc1ccc(-c2c(Cl)nc(C#N)n2S(=O)(=O)N(C)C)cc1 [Compound No. 1, 4-chloro-2-cyano-1-dimethylsulfamoyl-5-(4-methylphenyl)imidazole] | – | 85% and 90% | – | Incidence rate [5]: 87% and 95%; Incidence rate [6]: 47% and 50% and 31% and 37%; Lesion-free Area Ratio [7]: 65%
7 | OP(O)O [H2(PO3H), phosphorous acid] | 75 | 75% | – | –
8 | COCC(=O)N(c1c(C)cccc1C)C(C)C(=O)OC (racemic) [Metalaxyl, methyl N-(2-methoxyacetyl)-N-(2,6-xylyl)-DL-alaninate] | – | – | 60% and 100% | –
9 | CO/N=C(/C(=O)OC)c1ccccc1COc1ccccc1C [Compound (b), methyl (E)-methoxyimino[α-(o-tolyloxy)-O-tolyl]acetate] | – | – | 100% | –
